Laboratory results as given in patent US10800789B2, “Antiviral compounds” (Gilead Pharmasset LLC, priority 2012, dated 2020).
Read-outs that look alike come from different tables or passages of the source.

What was measured:
[1] = system: stable HCV 1a RLuc replicon cells (dicistronic genotype 1a H77 replicon); experiment: Renilla luciferase HCV replicon reporter assay, genotype 1a; format: cell-based; settings: Hepatitis C virus, 72 h, stable 1a H77 RLuc replicon cells
How it was run: (§1)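 Cells carrying the stable or transiently transfected (Huh-Lunet) dicistronic RLuc replicons received 3-fold serial compound dilutions from 10 mM DMSO stocks. After 72 h, cells were lysed and Renilla luciferase read. DMSO served as the no-inhibition control and ITMN-191 above 100×EC50 as the positive control; EC50 by non-linear regression.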

[2] = system: stable HCV 2a JFH-1 Rluc replicon cells (L31 present in NS5A); experiment: Renilla luciferase HCV replicon reporter assay, genotype 2a JFH-1; format: cell-based; settings: Hepatitis C virus
How it was run: as §1

[3] = system: NS5A chimeric genotype 1b Con1 replicon with genotype 3a S52 strain NS5A gene; experiment: Replicon assay, genotype 3a NS5A chimera; format: cell-based, HCV; settings: Hepatitis C virus
[4] = system: NS5A chimeric genotype 1b Con1 replicon with genotype 4a ED43 strain NS5A gene; experiment: Replicon assay, genotype 4a NS5A chimera; format: cell-based, HCV; settings: Hepatitis C virus
[5] = system: NS5A chimeric genotype 2a JFH-1 replicon with genotype 2b MD2b-1 strain NS5A gene (M31 present); experiment: Replicon assay, genotype 2b NS5A chimera; format: cell-based, HCV; settings: Hepatitis C virus
How it was run: as §1

[6] = system: stable HCV 1b RLuc replicon cells (dicistronic genotype 1b Con1 replicon); experiment: Renilla luciferase HCV replicon reporter assay, genotype 1b; format: cell-based; settings: Hepatitis C virus, 72 h, stable 1b Con1 RLuc replicon cells, 72 hours; read-out: 1b
How it was run: as §1

[7] = system: NS5A chimeric genotype 2a JFH-1 replicon with genotype 2a J6 strain NS5A gene (M31 present); experiment: Replicon assay, genotype 2a J6 NS5A chimera; format: cell-based, HCV; settings: Hepatitis C virus
How it was run: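 Antiviral EC50 was determined in HCV replicon cells (stable RLuc lines for 1a H77, 1b Con1, 2a JFH-1 with NS5A L31; J6 NS5A chimera with M31) treated 72 h with compound. Renilla luciferase was then quantified.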

[8] = read-out: 2a JFH (nM), genotype 2a JFH-1 replicon (L31 in NS5A), stable cells
[9] = read-out: 2a JFH, stable 2a JFH-1 Rluc replicon cells, L31 in NS5A, activity range
[10] = read-out: 3a (s) (nM), genotype 3a NS5A chimeric replicon, stable replicon cells (s)
[11] = read-out: 3a (s), (s), activity range
[12] = read-out: 4a (s) (nM), genotype 4a NS5A chimeric replicon, stable replicon cells (s)
[13] = read-out: 4a (s), (s), activity range
[14] = 2BS, read-out: 2b (s), stably replicating replicon cells (s), activity range
[15] = read-out: 2b (s) (nM), genotype 2b MD2b-1 NS5A chimeric replicon (M31), stably replicating replicon cells (s)
[16] = read-out: 2a J6 (t) (nM), genotype 2a J6 NS5A chimeric replicon (M31), transiently transfected (t) into Huh-Lunet cells
[17] = read-out: 2a J6 (t), transiently transfected (t) into Huh-Lunet cells, activity range

Q: `COC(=O)N[C@H](C(=O)N1C[C@@H](F)C[C@H]1c1ncc(-c2ccc3c(c2)COc2cc4c(ccc5nc([C@@H]6CC[C@H](C)N6C(=O)[C@@H](NC(=O)OC)C(C)C)[nH]c54)cc2-3)[nH]1)C(C)C` [HS] was tested. Which EC50 [1] did it give?
A: Its EC50 is 11 pM.

Q: And the EC50 ([1]; activity range)?
A: Its EC50 is under 100 pM.

Q: And the EC50 [2, 8]?
A: Its EC50 is 0.022 nM.

Q: What about the EC50 [2, 9] of the same molecule?
A: The EC50 was under 0.1 nM.

Q: And the EC50 [3, 10]?
A: The EC50 was 0.082 nM.

Q: What about the EC50 [3, 11] of the same molecule?
A: The EC50 was under 0.1 nM.

Q: And the EC50 [4, 12]?
A: The EC50 was 0.008 nM.

Q: What about the EC50 [4, 13] of the same molecule?
A: The EC50 was under 0.1 nM.

Q: And the EC50 [5, 14]?
A: The EC50 was 1 to 44 nM.

Q: And the EC50 [5, 15]?
A: Its EC50 is 3.37 nM.

Q: And the EC50 [6]?
A: Its EC50 is 23 pM.

Q: And the EC50 [7, 16]?
A: Its EC50 is 4.14 nM.

Q: And the EC50 [7, 17]?
A: Its EC50 is 1 to 44 nM.

Q: `COC(=O)N[C@H](C(=O)N1[C@@H](C)CC[C@H]1c1nc2ccc3cc4c(cc3c2[nH]1)OCc1cc(-c2cnc([C@@H]3C[C@H](F)CN3C(=O)[C@@H](NC(=O)OC)C3CCOCC3)[nH]2)ccc1-4)C(C)C` [HT] was tested. Which EC50 [1] did it give?
A: Its EC50 is 70 pM.

Q: What about the EC50 ([1]; activity range) of the same molecule?
A: Its EC50 is under 100 pM.

Q: What about the EC50 [2, 8] of the same molecule?
A: Its EC50 is 0.051 nM.

Q: What about the EC50 [2, 9] of the same molecule?
A: The EC50 was under 0.1 nM.

Q: What about the EC50 [3, 10] of the same molecule?
A: The EC50 was 0.075 nM.

Q: What about the EC50 [3, 11] of the same molecule?
A: The EC50 was under 0.1 nM.

Q: And the EC50 [4, 12]?
A: The EC50 was 0.03 nM.

Q: And the EC50 [4, 13]?
A: Its EC50 is under 0.1 nM.

Q: And the EC50 [5, 14]?
A: The EC50 was 1 to 44 nM.

Q: What about the EC50 [5, 15] of the same molecule?
A: Its EC50 is 1.35 nM.

Q: And the EC50 [6]?
A: Its EC50 is 110 pM.

Q: What about the EC50 [7, 16] of the same molecule?
A: Its EC50 is 0.778 nM.

Q: And the EC50 [7, 17]?
A: Its EC50 is 0.1 to 0.999 nM.

Q: How did the EC50 [1] turn out when `COC(=O)N[C@H](C(=O)N1[C@@H](C)CC[C@H]1c1nc2ccc3cc4c(cc3c2[nH]1)OCc1cc(-c2cnc([C@@H]3C[C@H](F)CN3C(=O)[C@@H](NC(=O)OC)[C@@H](C)OC)[nH]2)ccc1-4)C(C)C` [HU] was run?
A: The EC50 was 16 pM.

Q: What about the EC50 ([1]; activity range) of the same molecule?
A: Its EC50 is under 100 pM.

Q: What about the EC50 [2, 8] of the same molecule?
A: The EC50 was 0.026 nM.

Q: What about the EC50 [2, 9] of the same molecule?
A: The EC50 was under 0.1 nM.

Q: What about the EC50 [3, 10] of the same molecule?
A: Its EC50 is 0.083 nM.

Q: What about the EC50 [3, 11] of the same molecule?
A: Its EC50 is under 0.1 nM.

Q: And the EC50 [4, 12]?
A: Its EC50 is 0.012 nM.

Q: What about the EC50 [4, 13] of the same molecule?
A: The EC50 was under 0.1 nM.

Q: What about the EC50 [5, 14] of the same molecule?
A: The EC50 was 1 to 44 nM.

Q: What about the EC50 [5, 15] of the same molecule?
A: Its EC50 is 3.56 nM.

Q: What about the EC50 [6] of the same molecule?
A: Its EC50 is 55 pM.

Q: And the EC50 [7, 16]?
A: Its EC50 is 3.17 nM.

Q: What about the EC50 [7, 17] of the same molecule?
A: The EC50 was 1 to 44 nM.

Q: `COC(=O)N[C@H](C(=O)N1[C@@H](C)CC[C@H]1c1ncc(-c2ccc3c(c2)COc2cc4c(ccc5nc([C@@H]6CC[C@H](C)N6C(=O)[C@@H](NC(=O)OC(C)(C)C)C(C)(C)O)[nH]c54)cc2-3)[nH]1)C(C)C` [HV] was tested. Which EC50 [1] did it give?
A: Its EC50 is 3650 pM.

Q: What about the EC50 ([1]; activity range) of the same molecule?
A: The EC50 was 1000 to 44000 pM.

Q: What about the EC50 [2, 8] of the same molecule?
A: Its EC50 is 1.87 nM.

Q: And the EC50 [2, 9]?
A: The EC50 was 1 to 44 nM.

Q: What about the EC50 [3, 10] of the same molecule?
A: The EC50 was 12.6 nM.

Q: What about the EC50 [3, 11] of the same molecule?
A: The EC50 was 1 to 44 nM.

Q: And the EC50 [4, 12]?
A: The EC50 was 1.27 nM.

Q: What about the EC50 [4, 13] of the same molecule?
A: The EC50 was 1 to 44 nM.

Q: What about the EC50 [5, 14] of the same molecule?
A: Its EC50 is over 44 nM.

Q: What about the EC50 [5, 15] of the same molecule?
A: Its EC50 is at least 44.4 nM.

Q: What about the EC50 [6] of the same molecule?
A: The EC50 was 91 pM.

Q: What about the EC50 [7, 16] of the same molecule?
A: The EC50 was at least 44.4 nM.

Q: What about the EC50 [7, 17] of the same molecule?
A: The EC50 was over 44 nM.

Q: For `COC(=O)N[C@H](C(=O)N1[C@@H](C)CC[C@H]1c1ncc(-c2ccc3c(c2)COc2cc4c(ccc5nc([C@@H]6CC[C@H](C)N6C(=O)[C@@H](NC(=O)OC)[C@H](C)O)[nH]c54)cc2-3)[nH]1)C(C)C` [HW], which EC50 [1] is on record?
A: The EC50 was 56 pM.

Q: And the EC50 ([1]; activity range)?
A: The EC50 was under 100 pM.

Q: What about the EC50 [2, 8] of the same molecule?
A: The EC50 was 0.047 nM.

Q: And the EC50 [2, 9]?
A: The EC50 was under 0.1 nM.

Q: And the EC50 [3, 10]?
A: Its EC50 is 0.085 nM.

Q: And the EC50 [3, 11]?
A: Its EC50 is under 0.1 nM.

Q: And the EC50 [4, 12]?
A: Its EC50 is 0.021 nM.

Q: And the EC50 [4, 13]?
A: The EC50 was under 0.1 nM.

Q: And the EC50 [5, 14]?
A: Its EC50 is 1 to 44 nM.

Q: What about the EC50 [5, 15] of the same molecule?
A: The EC50 was 1.79 nM.

Q: And the EC50 [6]?
A: Its EC50 is 66 pM.

Q: And the EC50 [7, 16]?
A: The EC50 was 1.1 nM.

Q: What about the EC50 [7, 17] of the same molecule?
A: Its EC50 is 1 to 44 nM.

Q: With `COC(=O)N[C@H](C(=O)N1C[C@@H](C)C[C@H]1c1nc2ccc3cc4c(cc3c2[nH]1)OCc1cc(-c2cnc([C@@H]3CC[C@H](C)N3C(=O)[C@@H](NC(=O)OC)C(C)(C)C)[nH]2)ccc1-4)C(C)C` [HX] as the molecule, how does the EC50 [1] read?
A: Its EC50 is 11 pM.

Q: And the EC50 ([1]; activity range)?
A: Its EC50 is under 100 pM.

Q: And the EC50 [2, 8]?
A: The EC50 was 0.027 nM.

Q: What about the EC50 [2, 9] of the same molecule?
A: The EC50 was under 0.1 nM.

Q: And the EC50 [3, 10]?
A: The EC50 was 0.266 nM.

Q: What about the EC50 [3, 11] of the same molecule?
A: The EC50 was 0.1 to 0.999 nM.

Q: What about the EC50 [4, 12] of the same molecule?
A: Its EC50 is 0.014 nM.

Q: What about the EC50 [4, 13] of the same molecule?
A: Its EC50 is under 0.1 nM.

Q: What about the EC50 [5, 14] of the same molecule?
A: The EC50 was 1 to 44 nM.

Q: And the EC50 [5, 15]?
A: The EC50 was 2.92 nM.

Q: What about the EC50 [6] of the same molecule?
A: Its EC50 is 20 pM.

Q: What about the EC50 [7, 16] of the same molecule?
A: Its EC50 is 3.28 nM.

Q: What about the EC50 [7, 17] of the same molecule?
A: The EC50 was 1 to 44 nM.

Q: With `CC[C@H]1CC[C@@H](c2ncc(-c3ccc4c(c3)COc3cc5c(ccc6nc([C@@H]7C[C@H](C)CN7C(=O)[C@@H](NC(=O)OC)C7CCOCC7)[nH]c65)cc3-4)[nH]2)N1C(=O)[C@@H](NC(=O)OC)C(C)C` [HZ] as the molecule, how does the EC50 [1] read?
A: Its EC50 is 12 pM.

Q: What about the EC50 ([1]; activity range) of the same molecule?
A: Its EC50 is under 100 pM.

Q: What about the EC50 [2, 8] of the same molecule?
A: The EC50 was 0.014 nM.

Q: What about the EC50 [2, 9] of the same molecule?
A: The EC50 was under 0.1 nM.

Q: And the EC50 [3, 10]?
A: Its EC50 is 0.14 nM.

Q: What about the EC50 [3, 11] of the same molecule?
A: The EC50 was 0.1 to 0.999 nM.

Q: What about the EC50 [4, 12] of the same molecule?
A: The EC50 was 0.012 nM.

Q: And the EC50 [4, 13]?
A: Its EC50 is under 0.1 nM.

Q: What about the EC50 [5, 14] of the same molecule?
A: Its EC50 is under 0.1 nM.

Q: What about the EC50 [5, 15] of the same molecule?
A: Its EC50 is 0.073 nM.

Q: What about the EC50 [6] of the same molecule?
A: Its EC50 is 25 pM.

Q: What about the EC50 [7, 16] of the same molecule?
A: The EC50 was 0.023 nM.

Q: What about the EC50 [7, 17] of the same molecule?
A: Its EC50 is under 0.1 nM.
